Results: patent US20020022647A1, “2-(4-bromo or 4-iodo phenylamino) benzoic acid derivatives” (priority 1997, published 2002)

What was measured:
[1] = test system: activation of MAP kinase in whole cells; assay: In Vivo (Cell Culture): whole cell MAP kinase assay; type: cell-based
Protocol: Whole Cell MAP Kinase Assay
To determine if compounds were able to block activation of MAP kinase in whole cells, the following protocol was used: Cells were plated in multi-well plates and grown to confluence. Cells were then serum-deprived overnight. Cells were exposed to the desired concentrations of compound or vehicle (DMSO) for 30 minutes, followed by addition of a growth factor, for example, PDGF (100 ng/mL). After a 5-minute treatment with the growth factor, cells were washed with PBS, then lysed in a buffer consisting of 70 mM NaCl, 10 mM HEPES (pH 7.4), 50 mM glycerol phosphate, and 1% Triton X-100. Lysates were clarified by centrifugation at 13,000× g for 10 minutes. Five micrograms of the resulting supernatants were incubated with 10 μg microtubule associated protein-2 (Map2) for 15 minutes at 30° C. in a final volume of 25 μL containing 50 mM Tris (pH 7.4), 10 mM MgCl2, 2 mM EGTA and 30 uM [γ-^32P]ATP. Reactions were terminated by addition of Laemmli sample buffer. Phosphorylated Map2 was resolved on 7.5% acrylamide gels and incorporated radioactivity determined by autoradiography and subsequent excision of the bands followed by scintillation counting.

[2] = molecular target: GST-MEK (p45MEK) and GST-MAPK (p44MAP kinase) (Homo sapiens, UniProt Q02750); assay: Cascade assay for inhibitors of the MAP kinase pathway (In Vitro); type: biochemical; conditions: incorporation of 32P into myelin basic protein
Sequence of GST-MEK (p45MEK) and GST-MAPK (p44MAP kinase) (Q02750 whole entry): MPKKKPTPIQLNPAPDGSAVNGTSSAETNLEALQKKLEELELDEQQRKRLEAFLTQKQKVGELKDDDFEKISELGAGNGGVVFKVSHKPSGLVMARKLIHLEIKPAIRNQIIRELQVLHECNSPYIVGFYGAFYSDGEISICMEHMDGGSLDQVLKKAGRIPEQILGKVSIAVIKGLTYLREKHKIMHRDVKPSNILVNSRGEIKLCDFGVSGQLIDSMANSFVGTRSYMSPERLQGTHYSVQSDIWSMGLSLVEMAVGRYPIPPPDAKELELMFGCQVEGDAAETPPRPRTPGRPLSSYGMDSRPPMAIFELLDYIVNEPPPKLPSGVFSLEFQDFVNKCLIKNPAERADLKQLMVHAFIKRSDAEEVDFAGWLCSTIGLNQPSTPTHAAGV
Protocol: Cascade Assay for Inhibitors of the MAP Kinase Pathway
Incorporation of ^32P into myelin basic protein (MBP) was assayed in the presence of a glutathione S-transferase fusion protein containing p44MAP kinase (GST-MAPK) and a glutathione S-transferase fusion protein containing p45MEK (GST-MEK). The assay solution contained 20 mM HEPES, pH 7.4, 10 mM MgCl2, 1 mM MnCl2, 1 mM EGTA, 50 μM [γ-^32P]ATP, 10 μg GST-MEK0.5 μg GST-MAPK and 40 μg MBP in a final volume of 100 μL. Reactions were stopped after 20 minutes by addition of trichloroacetic acid and filtered through a GF/C filter mat. ^32P retained on the filter mat was determined using a 1205 Betaplate. Compounds were assessed at 10 μM for ability to inhibit incorporation of ^32P.
To ascertain whether compounds were inhibiting GST-MEK or GST MAPK, two additional protocols were employed. In the first protocol, compounds were added to tubes containing GST-MEK, followed by addition of GST-MAPK, MBP and [γ-^32P]ATP. In the second protocol, compounds were added to tubes containing both GST-MEK and GST-MAPK, followed by MBP and [γ-^32P]ATP.

SMILES | IC50 [1] [nM] | IC50 [2] [nM] | melting point | inhibition at 30 µM ([1]; at 30 μM) [%]
Cc1cc(I)ccc1Nc1c(C(=O)NCCO)cc(Br)c(F)c1F [Example 53, 5-Bromo-3,4-difluoro-N-(2-hydroxy-ethyl)-2-(4-iodo-2-methyl-phenylamino)-benzamide] | 540 | 47 | – | –
Cc1cc(I)ccc1Nc1ccc(Cl)cc1C(=O)NCCO [Example 31, 5-Chloro-N-(2-hydroxyethl)-2-(4-iodo-2-methyl-phenylamino)-benzamide] | – | 226 | 120 to 121 °C | –
Cc1cc(I)ccc1Nc1ccc([N+](=O)[O-])cc1-c1nnn[nH]1 [Example 209] | – | 1372 | 205 to 208 °C | –
Cc1cc(I)ccc1Nc1cc(F)ccc1CO [Example 49, 4-Fluoro-2-(4-iodo-2-methyl-2henylamino)-benzyl alcohol] | – | 418 | 99 to 100.5 °C | –
Cc1cc(I)ccc1Nc1ccc(Cl)cc1C(=O)NCC(=O)O [Example 40, [5-Chloro-2-(4-iodo-2-methyl-phenylamino)-benzoylamno]-acetic acid] | – | 651 | – | 30
Cc1cc(I)ccc1Nc1ccccc1-c1nnn[nH]1 [Example 208] | – | 1215 | 231 °C (dec.) | –
